Results: ChEMBL document CHEMBL1201862, “PubChem BioAssay data set” (2004)
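These data come from cells grown in 96-well plates and exposed to compound for 48 hours at five concentrations. GI50 marks 50% less growth.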 The source made the active and inactive calls. Rule as the data show it: active = GI50 up to about 1.1 µM and inactive = higher.

Experiments:
Test in all cases: NCI tumour cell line growth inhibition, 48 h
SNB-19 = test system: SNB-19
UO-31 = test system: UO-31
M14 = test system: M14
DLD-1 = test system: DLD-1
IGROV-1 = test system: IGROV-1
NCI-H460 = test system: NCI-H460
CAKI-1 = test system: CAKI-1
HL-60 = test system: HL-60
Malme-3M = test system: Malme-3M
SK-MEL-28 = test system: SK-MEL-28
K562 = test system: K562
LOX IMVI = test system: LOX IMVI
XF498 = test system: XF498
SNB-75 = test system: SNB-75
OVCAR-4 = test system: OVCAR-4
SR = test system: SR
HOP-18 = test system: HOP-18
CCRF-CEM = test system: CCRF-CEM
OVCAR-5 = test system: OVCAR-5
SK-OV-3 = test system: SK-OV-3
DMS-273 = test system: DMS-273
OVCAR-3 = test system: OVCAR-3
HT-29 = test system: HT-29
UACC-257 = test system: UACC-257
RXF 393 = test system: RXF 393
COLO 205 = test system: COLO 205
UACC-62 = test system: UACC-62
HCT-116 = test system: HCT-116
SK-MEL-2 = test system: SK-MEL-2
EKVX = test system: EKVX
OVCAR-8 = test system: OVCAR-8
SN12C = test system: SN12C
HOP-92 = test system: HOP-92
SW-620 = test system: SW-620
KM12 = test system: KM12
KM-20L2 = test system: KM-20L2
A498 = test system: A498
HCC 2998 = test system: HCC 2998
786-0 = test system: 786-0
DMS-114 = test system: DMS-114
U-251 = test system: U-251
SF-268 = test system: SF-268
ACHN = test system: ACHN
MOLT-4 = test system: MOLT-4
SF-539 = test system: SF-539
HCT-15 = test system: HCT-15
NCI-H226 = test system: NCI-H226
A549 = test system: A549
M19-MEL = test system: M19-MEL
NCI-H522 = test system: NCI-H522
HOP-62 = test system: HOP-62
TK-10 = test system: TK-10
NCI-H23 = test system: NCI-H23
LXFL 529 = test system: LXFL 529
SF-295 = test system: SF-295
SNB-78 = test system: SNB-78
SK-MEL-5 = test system: SK-MEL-5
RPMI-8226 = test system: RPMI-8226

## CC(C)(C)c1ccc2c(c1)C(O)(c1ccccc1)c1cc(C(C)(C)C)ccc1C2(O)C(F)(F)F (configuration not stated)
SNB-19
  GI50: 2.27 µM (inactive)
UO-31
  GI50: 2.11 µM (inactive)
M14
  GI50: 1.92 µM (inactive)
DLD-1
  GI50: 2.03 µM (inactive)
IGROV-1
  GI50: 2.15 µM (inactive)
NCI-H460
  GI50: 1.61 µM (inactive)
CAKI-1
  GI50: 1.74 µM (inactive)
HL-60
  GI50: 2.29 µM (inactive)
Malme-3M
  GI50: 2.51 µM (inactive)
SK-MEL-28
  GI50: 2.09 µM (inactive)
K562
  GI50: 2.56 µM (inactive)
LOX IMVI
  GI50: 1.82 µM (inactive)
XF498
  GI50: 1.53 µM (inactive)
SNB-75
  GI50: 2.13 µM (inactive)
OVCAR-4
  GI50: 1.83 µM (inactive)
SR
  GI50: 2.13 µM (inactive)
HOP-18
  GI50: 2.2 µM (inactive)
CCRF-CEM
  GI50: 2.13 µM (inactive)
OVCAR-5
  GI50: 1.66 µM (inactive)
SK-OV-3
  GI50: 3.24 µM (inactive)
DMS-273
  GI50: 1.74 µM (inactive)
OVCAR-3
  GI50: 1.94 µM (inactive)
HT-29
  GI50: 1.57 µM (inactive)
UACC-257
  GI50: 2.33 µM (inactive)
RXF 393
  GI50: 1.82 µM (inactive)
COLO 205
  GI50: 1.82 µM (inactive)
UACC-62
  GI50: 1.63 µM (inactive)
HCT-116
  GI50: 1.87 µM (inactive)
SK-MEL-2
  GI50: 1.76 µM (inactive)
EKVX
  GI50: 3.03 µM (inactive)
OVCAR-8
  GI50: 2.12 µM (inactive)
SN12C
  GI50: 1.76 µM (inactive)
HOP-92
  GI50: 1.97 µM (inactive)
SW-620
  GI50: 1.88 µM (inactive)
KM12
  GI50: 1.93 µM (inactive)
KM-20L2
  GI50: 1.59 µM (inactive)
A498
  GI50: 1.83 µM (inactive)
HCC 2998
  GI50: 2.1 µM (inactive)
786-0
  GI50: 1.88 µM (inactive)
DMS-114
  GI50: 2.04 µM (inactive)
U-251
  GI50: 1.81 µM (inactive)
SF-268
  GI50: 2.27 µM (inactive)
ACHN
  GI50: 2.14 µM (inactive)
MOLT-4
  GI50: 1.77 µM (inactive)
SF-539
  GI50: 1.74 µM (inactive)
HCT-15
  GI50: 1.39 µM
NCI-H226
  GI50: 1.05 µM (active)
A549
  GI50: 1.88 µM (inactive)
M19-MEL
  GI50: 1.85 µM (inactive)
NCI-H522
  GI50: 1.64 µM (inactive)
HOP-62
  GI50: 1.29 µM (inactive)
TK-10
  GI50: 3.98 µM (inactive)
NCI-H23
  GI50: 1.81 µM (inactive)
LXFL 529
  GI50: 1.97 µM (inactive)
SF-295
  GI50: 1.43 µM (inactive)

## CSc1nc(O)c2cn(Cc3ccccc3)nc2n1
SNB-19
  GI50: > 100 µM (inactive)
UO-31
  GI50: > 87.3 µM (inactive)
M14
  GI50: > 91.6 µM (inactive)
DLD-1
  GI50: > 70.5 µM (inactive)
IGROV-1
  GI50: > 100 µM (inactive)
NCI-H460
  GI50: > 100 µM (inactive)
CAKI-1
  GI50: 41 µM (inactive)
HL-60
  GI50: > 100 µM (inactive)
Malme-3M
  GI50: > 100 µM (inactive)
SK-MEL-28
  GI50: > 100 µM (inactive)
K562
  GI50: 77.8 µM (inactive)
LOX IMVI
  GI50: > 100 µM (inactive)
SNB-75
  GI50: > 86.1 µM (inactive)
SNB-78
  GI50: > 100 µM (inactive)
OVCAR-4
  GI50: > 100 µM (inactive)
SR
  GI50: > 100 µM (inactive)
HOP-18
  GI50: > 100 µM (inactive)
CCRF-CEM
  GI50: 44 µM (inactive)
OVCAR-5
  GI50: > 100 µM (inactive)
SK-OV-3
  GI50: > 100 µM (inactive)
DMS-273
  GI50: > 100 µM (inactive)
OVCAR-3
  GI50: > 100 µM (inactive)
HT-29
  GI50: 98.2 µM (inactive)
UACC-257
  GI50: > 100 µM (inactive)
RXF 393
  GI50: > 91 µM (inactive)
COLO 205
  GI50: > 100 µM (inactive)
UACC-62
  GI50: > 100 µM (inactive)
HCT-116
  GI50: > 100 µM (inactive)
SK-MEL-2
  GI50: > 100 µM (inactive)
EKVX
  GI50: > 100 µM (inactive)
OVCAR-8
  GI50: > 100 µM (inactive)
SN12C
  GI50: > 100 µM (inactive)
HOP-92
  GI50: 71.6 µM (inactive)
SW-620
  GI50: > 100 µM (inactive)
KM12
  GI50: > 100 µM (inactive)
KM-20L2
  GI50: > 67.5 µM (inactive)
A498
  GI50: > 100 µM (inactive)
HCC 2998
  GI50: > 100 µM (inactive)
786-0
  GI50: > 100 µM (inactive)
DMS-114
  GI50: > 100 µM (inactive)
U-251
  GI50: > 100 µM (inactive)
SK-MEL-5
  GI50: > 100 µM (inactive)
SF-268
  GI50: > 100 µM (inactive)
ACHN
  GI50: > 76.4 µM (inactive)
MOLT-4
  GI50: > 100 µM (inactive)
SF-539
  GI50: > 100 µM (inactive)
HCT-15
  GI50: > 75.3 µM
NCI-H226
  GI50: > 100 µM (inactive)
A549
  GI50: > 100 µM (inactive)
M19-MEL
  GI50: > 100 µM (inactive)
NCI-H522
  GI50: > 100 µM (inactive)
HOP-62
  GI50: > 100 µM (inactive)
TK-10
  GI50: > 61.7 µM (inactive)
NCI-H23
  GI50: > 100 µM (inactive)
LXFL 529
  GI50: 58.6 µM (inactive)
RPMI-8226
  GI50: > 100 µM (inactive)
SF-295
  GI50: > 100 µM (inactive)
